Assays:
[1] = cited from earlier work
[2] = system: patients with early idiopathic Parkinson's disease treated with levodopa/DDCI, with no signs of motor complications; conditions: human, in vivo, 24 weeks
Excerpt: The term “treatment-emergent adverse event” is defined as any event not present before exposure to the study drug or any event already present that worsens in either intensity or frequency after first intake of study drug until 2 weeks after last intake of the study drug.
The factors evaluated include: • Treatment-emergent adverse events (TEAEs) including serious adverse events (SAEs) • Laboratory safety tests (biochemistry, hematology, coagulation and urinalysis) • Physical and neurological examinations • Vital signs • 12-lead ECG readings • Columbia-Suicide Severity Rating Scale (C-SSRS) • Modified Minnesota Impulsive Disorders Interview (mMIDI)

[3] = adjunct opicapone to levodopa/benserazide, cited from earlier work

Cc1c(Cl)c(C)[n+]([O-])c(Cl)c1-c1noc(-c2cc(O)c(O)c([N+](=O)[O-])c2)n1 [opicapone, 2,5-dichloro-3-[5-(3,4-dihydroxy-5-nitrophenyl)-1,2,4-oxadiazol-3-yl]-4,6-dimethylpyridine 1-oxide]
increase of minimum plasma concentration (Cmin) for individual levodopa doses ([1]; human, in vivo): up to 2.6 fold
effect on levodopa systemic exposure and peak-to-trough fluctuations ([1]; once daily opicapone 50 mg, levodopa given every 3 and 4 hours): increased systemic exposure to levodopa
TEAE COVID-19; % [2]: (8.5) %
TEAE COVID-19; n [2]: 15
increase of levodopa systemic exposure ([3]; Cmax not changed): 2 fold
reduction of 3-O-methyldopa (3-OMD) exposure and Cmax [3]: up to 7 fold

Source: patent US20230390267A1, “TREATMENT REGIMENS FOR EARLY IDIOPATHIC PARKINSON'S DISEASE” (BIAL - PORTELA & CA., S.A., priority 2020, published 2023)
